Test results published in US10335494B2, “Combination of aurora kinase inhibitors and anti-CD30 antibodies” (Millennium Pharmaceuticals, Inc., priority 2013, dated 2019).

Test system: SR-786 tumor cells (SR786 xenograft ALCL model)
Assay: In vivo tumor efficacy model: SR786 xenograft ALCL model, SGN35 and MLN8237 alone or in combination
Design: species or system CB17 SCID female mice
Settings: for average tumor volume day 15 / average tumor volume day 21: in mm³
Method: SR-786 (4.0×10^6) tumor cells in RPMI-1640 media were aseptically injected into the subcutaneous space in the right dorsal flank of CB17 SCID female mice (Taconic Farms, Inc) using a 26 G 5/8 needle.
Brentuximab vedotin (SGN35), one vial (Seattle Genetics) was reconstituted in 10.5 ml sterile water to give a stock solution at 4.76 mg/ml concentration. The stock solution was formulated in 0.9% saline to reach the desired concentration and administered by intraperitoneal injection (IP) q4Dx21 days at 0.3 mg/kg and 0.4 mg/kg.
MLN8237 was formulated in 10% hydroxypropyl-beta-cyclodextrin and 1% sodium bicarbonate (10% HPbCD+1% NaHCO3) and administered by oral injection (1 cc syringe, 20-22 gauge) on QD schedule at 10 mg/kg and 20 mg/kg for 21 days. MLN8237 as used in the experimental section refers to alisertib sodium salt and the amount referenced is the amount of alisertib used.
Tumors were measured twice weekly using a vernier caliper. Tumor volumes were calculated using standard procedures (0.5×[…]). When the tumors reached a volume of approximately 200 mm^3 (SR-786), mice were randomized into 6-8 groups as described in the tables below, and injected with vehicle, MLN8237 or SGN35 or the combination of MLN8237 with SGN35, at various doses as described below in Tables 1 and 2. Tumor size and body weight were measured approximately twice a week for the duration of the study. Mice were euthanized when their tumor volume reached 10% of their body weight, or when the average tumor volume of a treatment or control group reached approximately 2000 mm^3. Tumor growth continued to be monitored after the dosing period in this study. Average tumor volume is reported as a function of time for selected groups in FIG. 1A and FIG. 1B.
The synergy analysis is based on the tumor volume data from day 0 to 21. Volume measurements below 25 cubic mm are excluded from the analysis because very low volumes cannot be measured accurately. The remaining measurements are log transformed and fit to a simple linear model with the measurement day as a covariate. The data are fit separately for the different animals to yield an estimated tumor growth rate for each animal in each treatment group. Based on the growth rates, the synergy score for the combination of agents A and B is defined as 100*(mean(μAB)−mean(μA)−mean(μB)+mean(μctl))/mean(μctl): where μAB, μA, μB, and μctl are the mean tumor growth rates for animals in the combination group, the A group, the B group, and the control group, respectively. The standard error of the synergy score is computed based on the variation in the growth rates among the animals. […] If the P-value is above 0.05, then the combination is considered to be additive. If the P-value is below 0.05, and the synergy score is less than zero, then the combination is considered to be synergistic. […] Otherwise, the combination is classified as antagonistic. Results

COc1cc(Nc2ncc3c(n2)-c2ccc(Cl)cc2C(c2c(F)cccc2OC)=NC3)ccc1C(=O)O [MLN8237, 4-{[9-chloro-7-(2-fluoro-6-methoxyphenyl)-5H-pyrimido[5,4-d][2]benzazepin-2-yl]amino}-2-methoxybenzoic acid]
average tumor volume day 15 (10 mg/kg MLN8237, QD, P.O): 625.4
average tumor volume day 21 (10 mg/kg MLN8237, QD, P.O): 1121
average tumor volume day 15 (20 mg/kg MLN8237, QD, P.O): 387.1
average tumor volume day 21 (20 mg/kg MLN8237, QD, P.O): 576.4
tumor growth compared to the control vehicle group (single agent MLN8237 P.O 10 mg/kg and 20 mg/kg QD): inhibited tumor growth

SGN35
average tumor volume day 15 (0.3 mg/kg SGN35, Q4d, I.P): 1136.1
average tumor volume day 21 (0.3 mg/kg SGN35, Q4d, I.P): 1676
average tumor volume day 15 (0.4 mg/kg SGN35, Q4d, I.P): 491.3
average tumor volume day 21 (0.4 mg/kg SGN35, Q4d, I.P): 553.8
tumor growth compared to the control vehicle group (single agent SGN35 0.3 and 0.4 mg/kg I.P Q4d): inhibited tumor growth
